Laboratory results reported in US20250389725A1, “METHOD FOR DETECTION OF SULFUR-CONTAINING AMINO ACID AS BIOMARKER FOR GLIOBLASTOMA USING NOVEL FLUORESCENT PROBE AND FLUORESCENCE-GUIDED SURGERY IMAGING APPLICATION THEREOF” (UNIVERSITY-INDUSTRY COOPERATION GROUP OF KYUNG HEE …, priority 2023, published 2025).

Tests used:
Assay type in all cases: cell-based
hepatoma cells (Huh7) = assay: CCK-8 cell viability (toxicity), Huh7; conditions: Huh7, CCK-8, compared to leaving groups with similar structures
Procedure: (§1) Specifically, for cell preparation, approximately 5×10^3 cells each of glioblastoma cells (U87MG), hepatoma cells (Huh7), cervical cancer cells (HeLa), and skin cancer cells (B16F10) were treated in a 96-well clear plate (SPL Life Science, Ref. of Korea), cultured at 37° C. for 24 hours, and then treated with Compound 1 (NPO-o-Pyr, 10 μM) and analyzed using a CCK-8 assay kit (Dofindo, Japan) according to the manufacturer's instructions. Absorbance levels were analyzed at a wavelength of 490 nm by a microplate reader (SpctraMax Gemini EM, Molecular Devices, US). 2-Hydroxypyridine and various leaving groups with similar structures thereto were treated in U87MG, Huh7, HeLa, and B16F10 cells, and the cell viability was measured, which was shown in FIG. 12.

[1] = test system: cervical cancer cells (HeLa); assay: CCK-8 cell viability (toxicity), HeLa; conditions: CCK-8, compared to leaving groups with similar structures
Procedure: as §1

[2] = test system: glioblastoma cells (U87MG); assay: CCK-8 cell viability (toxicity), U87MG; conditions: CCK-8, compared to leaving groups with similar structures
Procedure: as §1

[3] = test system: skin cancer cells (B16F10); assay: CCK-8 cell viability (toxicity), B16F10; conditions: B16F10, CCK-8, compared to leaving groups with similar structures
Procedure: as §1

Measured: toxicity (cell viability)

Oc1ccccn1 [2-hydroxypyridine]
very low: all assays above
